Source: EPA's ToxValDB 9.5 (doi:10.2903/j.efsa.2015.4032)

Columns and labels:
[1] = tested on: Folsomia candida; conditions: chronic/long-term
[2] = tested on: Colinus virginianus
[3] = tested on: Rattus norvegicus
[4] = tested on: Pimephales promelas; conditions: chronic/long-term; duration: 33 days; other
[5] = tested on: Daphnia magna; conditions: chronic/long-term; duration: 21 days; reproduction
[6] = tested on: Bibionidae; conditions: chronic/long-term; duration: 28 days
[7] = tested on: Hypoaspis aculeifer; conditions: chronic/long-term
[8] = tested on: Apis mellifera; conditions: acute, mortality
[9] = tested on: Tagia sp.
[10] = tested on: Aphidius rhopalosiphi; test: LR50; higher = less toxic; conditions: not reported; mortality
[11] = tested on: Typhlodromus pyri; test: LR50; higher = less toxic; conditions: not reported; mortality

Cc1cccc2sc3nncn3c12 [2,7,8,9-Tricyclazole]
NOEC [1]: 32 mg/kg
LD50 ([2]; acute, oral): > 2180 mg/kg-day
LC50 ([2]; acute, oral, diet): > 1140 mg/kg-day
NOAEL ([2]; reproduction developmental): 27.1 mg/kg-day
LD50 ([3]; acute, oral, F, mortality): 237 mg/kg-day
NOAEL ([3]; chronic): 5 mg/kg-day
NOEC [4]: 0.743 mg/L
NOEC [5]: 1.3 mg/L
NOEC [6]: 1.68 mg/L
NOEC [7]: 16 mg/kg
LD50 ([8]; dermal): > 99 µg/piece
LD50 ([8]; oral, unspecified): 30.9 µg/piece
LC50 ([9]; acute, duration: 14 days, mortality): > 1000 mg/kg
NOEC ([9]; chronic/long-term): 250 mg/kg
LR50 [10]: < 460 g/ha
LR50 [11]: > 460 g/ha
